Measurements reported in patent US10899737B2, “Piperazine carbamates and methods of making and using same” (Lundbeck La Jolla Research Center, Inc., priority 2016, dated 2021).

What was measured:
ABHD6 [1] = target: T1, ABHD6 (Mus musculus, UniProt Q8R2Y0); assay: In vitro competitive activity-based protein profiling (mouse), ABHD6; type: biochemical; details: 1 μM inhibitor, mouse brain membrane fraction or cell lysates; read-out: ABHD6 % inh. 1 μM (mouse)
T1 construct: Proteomes (mouse brain membrane fraction or cell lysates); from tissue; host or cells: mouse brain membrane fraction or cell lysates
T1 sequence (Q8R2Y0 1-336): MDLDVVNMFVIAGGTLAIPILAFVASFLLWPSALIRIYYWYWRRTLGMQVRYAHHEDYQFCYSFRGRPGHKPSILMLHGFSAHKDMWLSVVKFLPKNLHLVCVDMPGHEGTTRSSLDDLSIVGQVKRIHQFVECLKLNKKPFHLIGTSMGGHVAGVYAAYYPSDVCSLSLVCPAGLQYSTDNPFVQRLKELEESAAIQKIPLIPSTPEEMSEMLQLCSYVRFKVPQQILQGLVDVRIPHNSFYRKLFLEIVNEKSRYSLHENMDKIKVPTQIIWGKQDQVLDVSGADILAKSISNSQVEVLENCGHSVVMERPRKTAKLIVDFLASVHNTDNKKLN
Procedure, shortened: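 Mouse brain membrane proteome or cell lysate (1.0 mg/mL protein) preincubated 30 min at 37 °C with inhibitor, then labelled 30 min at 37 °C with FP-rhodamine probe. Remaining MAGL and ABHD6 activity quantified by in-gel fluorescence band intensity after SDS-PAGE; values are % inhibition at 1 μM.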

MAGL [2] = target: T2, MAGL (Mus musculus, UniProt O35678); assay: Mouse brain proteomes from inhibitor treated mice, MAGL inhibition; type: in vivo; details: 5 mg/kg oral gavage, C57Bl/6J mouse brain, 4 h following administration; read-out: MAGL % inh. 5 mg/kg (mouse)
T2 construct: Proteomes (mouse brain membrane fraction or cell lysates); from tissue; host or cells: mouse brain membrane fraction or cell lysates
T2 sequence (O35678 1-303): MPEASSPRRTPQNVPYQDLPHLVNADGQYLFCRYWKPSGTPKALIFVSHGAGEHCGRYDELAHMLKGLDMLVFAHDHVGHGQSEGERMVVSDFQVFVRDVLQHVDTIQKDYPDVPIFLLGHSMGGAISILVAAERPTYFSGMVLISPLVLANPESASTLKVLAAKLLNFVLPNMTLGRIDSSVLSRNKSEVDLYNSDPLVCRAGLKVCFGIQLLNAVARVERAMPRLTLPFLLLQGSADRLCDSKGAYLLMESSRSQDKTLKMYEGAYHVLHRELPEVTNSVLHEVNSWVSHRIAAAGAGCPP
Experimental: Preparation of Mouse Brain Proteomes from Inhibitor Treated Mice.
Inhibitors were administered to wild-type C57Bl/6J by oral gavage in a vehicle of polyethylene glycol. Each animal was sacrificed 4 h following administration and brain proteomes were prepared and analyzed according to previously established methods (See Niphakis, M. J., et al. (2011) ACS Chem. Neurosci. and Long, J. Z., et al. Nat. Chem. Biol. 5:37-44).

ABHD6 [3] = target: T3, ABHD6 (Homo sapiens, UniProt Q9BV23); assay: In vitro competitive activity-based protein profiling (human), ABHD6; type: biochemical; details: human PC3
T3 construct: Proteomes (human prefrontal cortex or cell membrane fractions); endogenous in cells; human prefrontal cortex
T3 sequence (Q9BV23 1-337): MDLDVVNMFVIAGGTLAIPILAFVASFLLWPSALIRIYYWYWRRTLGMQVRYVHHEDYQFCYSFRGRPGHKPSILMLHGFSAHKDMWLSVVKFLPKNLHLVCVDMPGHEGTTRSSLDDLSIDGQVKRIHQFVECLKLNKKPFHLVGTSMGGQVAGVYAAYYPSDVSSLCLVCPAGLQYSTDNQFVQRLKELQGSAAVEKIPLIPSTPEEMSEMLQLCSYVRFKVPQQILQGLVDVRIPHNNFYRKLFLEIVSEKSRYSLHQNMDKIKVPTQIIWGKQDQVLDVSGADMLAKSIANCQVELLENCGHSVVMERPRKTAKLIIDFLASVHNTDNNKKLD
Procedure, shortened: (§1)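 Human prefrontal cortex or cell membrane proteomes (1.0-2.0 mg/mL protein) preincubated 30 min at 37° C with inhibitor, then labeled 30 min RT with FP-Rh or JW912 probe. After SDS-PAGE, activity taken from fluorescent band intensity for each enzyme.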

MAGL [4] = target: T2, MAGL; assay: In vitro competitive activity-based protein profiling (mouse), MAGL; type: biochemical; details: 1 μM inhibitor, mouse brain membrane fraction or cell lysates; read-out: MAGL % inh. 1 μM (mouse)
Procedure, shortened: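 Mouse brain membrane fraction or cell lysate proteomes (50 μL, 1.0 mg/mL total protein) were preincubated with inhibitors at varying concentrations for 30 min at 37° C. FP-Rh (1.0 μL, 50 μM in DMSO) was then added for a further 30 min at 37° C. Samples were quenched with 4× SDS loading buffer and resolved by SDS-PAGE. MAGL activity was quantified from fluorescent gel band intensity using ImageJ 1.49 k.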

MAGL [5] = target: T4, MAGL (Homo sapiens, UniProt Q99685); assay: In vitro competitive activity-based protein profiling (human), MAGL; type: biochemical; details: for inhibition at 1 µM: 1 μM inhibitor, human proteome, 30 min preincubation at 37° C, read-out: MAGL % inh. 1 μM (human); for IC50: human PC3
T4 construct: Proteomes (human prefrontal cortex or cell membrane fractions); from tissue
T4 sequence (Q99685 1-303): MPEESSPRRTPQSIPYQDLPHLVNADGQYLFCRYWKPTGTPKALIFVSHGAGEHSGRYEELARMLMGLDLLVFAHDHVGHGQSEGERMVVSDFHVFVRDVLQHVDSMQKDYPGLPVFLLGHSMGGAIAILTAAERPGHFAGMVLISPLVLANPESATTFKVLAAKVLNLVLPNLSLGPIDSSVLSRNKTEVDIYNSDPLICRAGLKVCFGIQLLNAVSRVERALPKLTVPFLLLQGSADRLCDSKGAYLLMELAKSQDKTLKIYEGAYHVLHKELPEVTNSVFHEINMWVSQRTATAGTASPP
Procedure, shortened: as §1

inhibition at 1 µM (ABHD6 [1]) [%]	inhibition at 5 mg/kg (MAGL [2]) [%]	IC50 (ABHD6 [3]) [µM]	inhibition at 1 µM (MAGL [4]) [%]	inhibition at 1 µM (MAGL [5]) [%]	IC50 (MAGL [5]) [µM]	SMILES
50 to 75	≥ 75	0.1 to 1	≥ 75	≥ 75	≤ 0.1	CC1(C(=O)O)CCN(c2cc(Cl)ccc2CN2CCN(C(=O)OC(C(F)(F)F)C(F)(F)F)CC2)CC1 [Example 63, 1-(5-chloro-2-((4-(((1,1,1,3,3,3-hexafluoropropan-2-yl)oxy)carbonyl)piperazin-1-yl)methyl)phenyl)-4-methylpiperidine-4-carboxylic acid]
50 to 75	≥ 75	1 to 10	≥ 75	≥ 75	≤ 0.1	O=C(O)C1CCN(c2c(CN3CCN(C(=O)OC(C(F)(F)F)C(F)(F)F)CC3)ccc(Cl)c2F)CC1 [Example 62, 1-(3-chloro-2-fluoro-6-((4-(((1,1,1,3,3,3-hexafluoropropan-2-yl)oxy)carbonyl)piperazin-1-yl)methyl)phenyl)piperidine-4-carboxylic acid]
